According to US20250057793A1, “BENZOIC ACID SALTS FOR TREATMENT OF NERVOUS SYSTEM INJURIES AND DISORDERS” (The United States Government as represented by the …, priority 2021, published 2025):
Entries after “also recorded” stand apart in the source; their conditions may differ.

How the values were obtained:
CCI-injured mice [1] = assay: Tail suspension test (depression-like behavior) in CCI-injured mice; format: in vivo, mouse; settings: 50 mg/kg/day oral
Experimental: Mice were subjected to the tail suspension test using a methodology as described in earlier studies. The mice were gently hung upside down by the tail using the non-toxic adhesive tape 50 cm above the floor for 6 mins. Immobility time was defined as the period of time during which the mice only hung passively, without any active movements. An increased immobility time is defined as a depression-like behavior.

TBI mice [2] = assay: T-maze in TBI mice; format: in vivo, mouse; settings: 21 days post-injury, 50 mg/kg/day oral
Experimental: Mice were initially habituated in the T-maze for 2 days under food-deprived conditions. Food reward was provided for at least 5 times over a 10 mins period of training. T-maze was cleaned with mild detergent solution between each testing session, so as to minimize the animal's ability to use any olfactory clues. The food-reward side was always associated with a visual cue. Each time the animal consumed food-reward and it was considered as a positive turn.

CCI-injured mice [3] = assay: Grid runway in CCI-injured mice; format: in vivo, mouse; settings: for gait movement on grid runway (steps, time taken, foot misplacement): 7 day post-injury
From the text: The grid runway (65 cm length×8 cm breadth×1 cm intervals) made of parallel grid bars with interbar intervals of 1 cm apart and grid were kept above the surface on a table during the testing session. The soft padding was positioned under the grid run-way in the event for protection to avoid serious injury, if the animal falls from the grid. Each mouse was allowed to walk freely on grid and the time taken and number of steps to cross the runway was noted. Each successful foot placement on grid was recorded as a step. However, an error was considered whenever the paw slips through the grid or the paw misses a bar and extends downwards through the plane of bars. The locomotor behavior of animal on grid was evaluated by an observer blinded to the treatment on 7th and 21st day after CCI injury.

CCI-induced TBI mice [4] = assay: Lesion volume in CCI-induced mice (Cavalieri stereology); format: in vivo, mouse; settings: for total lesion volume / size of lesion cavity: 21 days post-injury
Experimental: FIG. 5C is a plot showing lesion size in the experimental conditions. Lesion size was quantitatively measured in control mice, untreated CCI injured mice, NaB treated CCI-mice and NaFO-treated CCI-mice at 21 days post-injury. Statistical analyses were performed with Student's t-test in the injured side of the brain [^ap<0.001 (5.623×10^−7) vs control; ^bp<0.001 (=0.001) vs CCI injury].
FIGS. 10A-10C. Decrease in lesion volume in TBI mice by GTB treatment. […] FIG. 10A. […] FIG. 10C. Lesion volume was quantified in all groups of mice. Statistical analyses were performed with two way ANOVA and expressed as mean±SD to compare the lesion volume between unlesioned and lesioned side of the brain.
The estimation of lesion volume was performed based on the Cavalieri method of unbiased stereology using the StereoInvestigator software (MicroBright Biosciences, USA). Both the ipsilateral and contralateral hemisphere of brain volumes were determined using the Cavalieri estimator with a 1 mm grid spacing 1 mm. Every fourth section was analyzed beginning from a random start point. Lesion volume was estimated by subtracting the volume of the ipsilateral hemisphere from that of the contralateral hemi-sphere. Then the volume of lesion cavity estimated in brain section of untreated mice was compared with lesion volume of brain sections of drug treated mice.

CCI-injured mice [5] = assay: Beam runway / beam walking in CCI-injured mice; format: in vivo, mouse; settings: for gait movement on beam runway (steps, time taken, foot slips): 7 day post-injury
From the text: The beam runway was made of smooth wooden material and measured 65 cm length×0.7 cm breadth×4 cm height. A black box with an opening was fixed at one end and an aversive stimulus (bright lamp) at the other end of beam. This test was used to evaluate the complex coordination and balance of mice while traversing the beam and we performed the procedure as described in earlier studies. The mouse was placed on the beam near the light source and the light was turned ‘on’. This makes the animal move into the box to avoid the aversive stimulus, which was then turned off. Six repetitions were performed with a 2 mins resting period inside the box. The parameters measured were the time taken (sec) to reach the box and the number of steps with contralateral limb drag/slips. An error was considered whenever the paw slipping on the beam and the number of slips were counted. The beam walk analysis was performed by an observer blinded to the treatment at 7th and 21st postoperative day.

[6] = system: mice with TBI induced by CCI; assay: Open field behavior in TBI mice; format: in vivo, mouse; settings: 50 mg/kg/day oral; for overall movements / all open-field parameters (heat map, distance, velocity, center frequency, rearing): 21 day post-injury
Experimental: The performance of animals in open field test was analyzed as described in earlier studies. Briefly, each animal was allowed to move freely to explore an open field arena designed with a square shaped wooden floor measuring 40×40 cm, with walls 30 cm high for 5 min. A […] (Basler Gen I Cam—Basler acA 1300-60) connected to a Noldus computer system was fixed in top facing-down on the open field arena. Each mouse was placed individually on center of the arena and the performance was monitored by the live video tracking system. The central area was arbitrarily defined as a square of 20×20 cm ([…]).

CCI-induced TBI mice [7] = assay: Glial activation and iNOS in brain of CCI-induced TBI mice (immunofluorescence, Western blot); settings: for activation of astrocytes / astroglial inflammation in vivo / microglial activation in vivo / iNOS / iNOS-positive cells / GFAP-positive astrocytes / Iba1-positive microglia: cortex and hippocampus; for activation of astrocytes / astroglial inflammation in vivo / microglial activation in vivo: 7 days of treatment, 50 mg/kg/day oral; for iNOS / iNOS-positive cells / level of iNOS protein / expression of iNOS (Western blot) / protein level of GFAP (Western blot) / protein level of Iba1 (Western blot): day 7, 50 mg/kg/day oral; for GFAP-positive astrocytes / Iba1-positive microglia: day 7 post-injury, 50 mg/kg/day oral from 24 h after CCI; for level of iNOS protein / expression of iNOS (Western blot) / protein level of GFAP (Western blot) / protein level of Iba1 (Western blot): hippocampus
CCI-injured mice [8] = assay: Rotarod test in CCI-injured mice; format: in vivo, mouse; settings: 50 mg/kg/day oral
Experimental: The forehindlimb motor coordination and balance in animals was observed using the rotarod test as described in earlier studies. Briefly, each mouse was placed on the confined section of the rod and trial was initiated with a smooth increase in speed from 4 rpm to 40 rpm for 5 mins. […] The latency to fall was measured in seconds and used for the analysis. Following the CCI injury, each mouse performed the task three trials during the testing sessions and the average score on these three trials was used as the individual rotarod score. Each trial on the rod was terminated when the mice fell off the rod or held on to the rod by hanging and completed improper revolutions.

TBI mice [9] = assay: Barnes maze test in TBI mice; format: in vivo, mouse; settings: 50 mg/kg/day oral; for Barnes maze latency (time taken to find the target hole) / Barnes maze number of errors: 21 days post-injury
Experimental: The Barnes maze test was performed as described in our earlier studies. Briefly, the mice were initially trained for 2 consecutive days followed by examination on day 3. After each training session, maze and escape tunnel were thoroughly cleaned with a mild detergent to avoid instinctive odor avoidance due to mouse's odor from the familiar object. On day 3, a video camera (Basler Gen I Cam—Basler acA 1300-60) connected to a Noldus computer system was placed above the maze and was illuminated with high voltage light that generated enough light and heat to motivate animals to enter into the escape tunnel. The performance was monitored by the video tracking system (Noldus System). Cognitive behavior parameters were examined by measuring latency (duration before all four paws were on the floor of the escape box) and errors (incorrect response before all four paws were on the floor of the escape box).

[10] = 21st day of CCI injury, 50 mg/kg/day oral gavage
[11] = 50 mg/kg/day oral, 50 mg/kg/day
[12] = 21 days post-injury, 50 mg/kg/day oral
[13] = 7 day post-injury, 50 mg/kg/day

| Structure (SMILES) | immobility time in tail suspension test (CCI-injured mice [1]; 21 days post-injury) | T-maze number of negative turns (TBI mice [2]) | T-maze number of positive turns (TBI mice [2]) | overall movements / all open-field parameters (heat map, distance, velocity, center frequency, rearing) [6] | activation of astrocytes / astroglial inflammation in vivo (CCI-induced TBI mice [7]) | microglial activation in vivo (CCI-induced TBI mice [7]) | iNOS / iNOS-positive cells (CCI-induced TBI mice [7]) | GFAP-positive astrocytes (CCI-induced TBI mice [7]) | Iba1-positive microglia (CCI-induced TBI mice [7]) | level of iNOS protein / expression of iNOS (Western blot) (CCI-induced TBI mice [7]) | protein level of GFAP (Western blot) (CCI-induced TBI mice [7]) | protein level of Iba1 (Western blot) (CCI-induced TBI mice [7]) | Barnes maze latency (time taken to find the target hole) (TBI mice [9]) | Barnes maze number of errors (TBI mice [9]) | other results |
| --- | --- | --- | --- | --- | --- | --- | --- | --- | --- | --- | --- | --- | --- | --- | --- |
| O=C(OCC(COC(=O)c1ccccc1)OC(=O)c1ccccc1)c1ccccc1 [GTB, Glyceryl Tribenzoate] | significantly less immobility time | lower number of negative turns | higher number of positive turns | no significant change | inhibits | decreases | decreased | decrease | reduced | decreased | decrease | reduced | less time | less errors | immobility time in tail suspension test (CCI-injured mice [1]; 7 days post-injury): significantly less immobility time; grid runway, number of steps (CCI-injured mice [3]; [10]): no significant change; gait movement on grid runway (steps, time taken, foot misplacement) (CCI-injured mice [3]; 50 mg/kg/day oral): improved; total lesion volume / size of lesion cavity (CCI-induced TBI mice [4]; H&E-stained sections, 50 mg/kg/day oral gavage): decrease; beam walking, number of steps (CCI-injured mice [5]; [10]): no significant change; beam walking, time taken (CCI-injured mice [5]; [10]): no significant change; gait movement on beam runway (steps, time taken, foot slips) (CCI-injured mice [5]; 50 mg/kg/day oral): improved; general locomotor activity / open-field behavior ([6]; 7 day post-injury): significant increase; latency to fall on rotarod (CCI-injured mice [8]; 7 day post-injury): increase in latency |
| O=C([O-])c1ccccc1.[Na+] [NaB, Sodium benzoate] | significant improvement | lower number of negative turns | higher number of positive turns | significant differences in overall movements were not observed | attenuates | inhibits | inhibition of iNOS | decrease | decrease | decreases | Decrease and/or normalization | Decrease and/or normalization | less latency | fewer errors | immobility time in tail suspension test (CCI-injured mice [1]; 7 days post-injury, 50 mg/kg/day): significantly less immobility time; also recorded: significant improvement; gait movement on grid runway (steps, time taken, foot misplacement) (CCI-injured mice [3]; [11]): significant improvement; also recorded: significant upgrade; also recorded: improvements; grid runway performance (CCI-injured mice [3]; [12]): did not display significant protection; total lesion volume / size of lesion cavity (CCI-induced TBI mice [4]; cresyl violet sections, 50 mg/kg/day oral): significantly reduced; structural-tissue integrity of damaged hippocampus (CCI-induced TBI mice [4]; oral treatment started 24 h after CCI): restored; gait movement on beam runway (steps, time taken, foot slips) (CCI-injured mice [5]; [11]): significant improvement; also recorded: significant upgrade; also recorded: improved; beam walking performance (CCI-injured mice [5]; [12]): did not display significant protection; general locomotor activity / open-field behavior [6, 13]: significant improvement; also recorded: improves; center frequency ([6]; open field, 7 day post-injury): Functional upgrading was clearly visible; distance traveled ([6]; open field, 7 day post-injury): Functional upgrading was clearly visible; rearing behavior ([6]; open field, 7 day post-injury): Functional upgrading was clearly visible; velocity ([6]; open field, 7 day post-injury): Functional upgrading was clearly visible; latency to fall on rotarod (CCI-injured mice [8]; [13]): prolonged latencies; also recorded: significantly improved; latency to fall on rotarod (CCI-injured mice [8]; 21 day post-injury, 50 mg/kg/day): prolonged latencies; also recorded: significantly improved; hippocampus-dependent behaviors / cognitive performance (TBI mice [9]; NOR, Barnes maze and T maze, 21 days): enhanced cognitive performance |
